Test results reported in US20190369111A1, “MOLECULAR KINETICS EVALUATION METHOD AND SCREENING METHOD” (Tokyo University of Science Foundation, priority 2016, published 2019).

Key:
wild-type p53 protein = target: T1, wild-type p53 protein (Mus musculus, UniProt P02340); test: Degradation of wild-type p53 protein in each tissue of mouse after administration, Western blot analysis; format: in vivo
T1 construct: administered intraperitoneally to C57BL/6J wild-type mice; from tissue; host or cells: C57BL/6J wild-type mice: liver, kidneys, spleen, heart
T1 sequence (P02340 whole entry): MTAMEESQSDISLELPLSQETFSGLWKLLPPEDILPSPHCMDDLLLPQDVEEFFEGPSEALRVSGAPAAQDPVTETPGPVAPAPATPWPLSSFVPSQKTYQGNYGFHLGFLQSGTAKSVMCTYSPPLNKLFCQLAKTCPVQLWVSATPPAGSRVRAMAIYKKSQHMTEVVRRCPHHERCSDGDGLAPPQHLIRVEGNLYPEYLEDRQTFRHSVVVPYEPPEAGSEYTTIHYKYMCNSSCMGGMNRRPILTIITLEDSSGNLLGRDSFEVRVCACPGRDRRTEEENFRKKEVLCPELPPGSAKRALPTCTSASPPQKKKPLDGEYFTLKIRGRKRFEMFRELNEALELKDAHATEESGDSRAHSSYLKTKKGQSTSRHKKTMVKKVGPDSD
Experimental: (§1) TIBC-CANDDY_MLN was dissolved in DMSO immediately before administration, and then dissolved in corn oil (Code No. 25606-55, Nacalai Tesque) so that the concentration of DMSO was 10 vol %, and then a dose of 50 mg/kg body weight or 100 mg/kg body weight was administered intraperitoneally to C57BL/6J wild-type mice (7 to 8 weeks old, male) (CLEA Japan, Inc.) (n=3). As a control, an injection carrier (corn oil containing 10 vol % DMSO) was used. The mice were kept under an environment of ad libitum access to food and water. The mice were dissected under deep anesthesia by Somnopentyl (Kyoritsu Seiyaku Corporation) 48 hours after administration. Abdominal section was performed, and then the liver, kidneys, spleen, and heart were sequentially extracted and flash frozen in liquid nitrogen. Each tissue frozen in liquid nitrogen was stored in a deep freezer at −80° C.
(§2) The frozen tissues (spleen: 0.02 g, other tissues: 0.04 g) were each frozen and triturated, and then 1×TKM tissue lysis buffer (50 mM triethanolamine (pH 7.8), 50 mM KCl, 5 mM MgCl2, 0.25 M sucrose, 1 mM PMSF, protein inhibitors cocktail-EDTA free (Code No. 03969-21, Nacalai Tesque), 1 mM DTT, and 5 μL/mL recombinant RNase inhibitor (40 U/μL, Cat No. 2313A, Lot No. K8402DA, TAKARA Bio)) were added in an amount of 490 μL for the spleen and 980 μL for the others, and dissolved by rotation for 15 minutes (1 rpm, 25° C.). Then, the resultant product was subjected to centrifugation (at 3000 rpm×15 minutes, 4° C.), and the supernatants (each tissue extract) was collected. The concentration of proteins in each tissue extract was quantified with a spectrophotometer using each tissue extract that had been diluted 20 times using DEPC-treated water.
(§3) Each tissue extract collected was subjected to Western blot analysis. An SDS-PAGE gel was prepared using TGX™ FastCast™ Acrylamide Kit, 12% (Bio-Rad). Electrophoresis samples were prepared in a 6×SDS-PAGE sample buffer (62.5 mM Tris-HCl pH 6.8, 2% SDS, 5% 2-mercaptoethanol, 10% glycerol, 0.25% BPB), and placed on a heat block at 95° C. for 5 minutes. The electrophoresis samples prepared were applied at 50 μg/well for detecting GAPDH, and at 100 μg/well for other detection. Electrophoresis was performed at 160 V for 60 minutes (electrophoresis buffer; 195 mM glycine, 25 mM Tris).
After electrophoresis, proteins were transferred to a PVDF membrane (Immobion™-P, Millipore) under conditions of 100 V and 1.5 hours using a tank-type blotting device and a transfer buffer (25 mM Tris-HCl, 195 mM glycine, 0.01% SDS, 15% methanol). The membrane was split into two at the position of a 25 kDa marker. The membrane after transfer was shaken and blocked in 5% skim milk/TBS-T (100 mM Tris-HCl, 150 mM NaCl, 0.1% Tween-20, pH 7.6) at room temperature for 30 minutes. After blocking, a primary antibody reaction was performed in 5% skim milk/TBS-T. As the primary antibody, an anti-p53 antibody (MAB1355, R&D Systems, Inc., diluted 500 times), an anti-MDM2 antibody (sc-965, SantaCruz, diluted 500 times), and an anti-GAPDH antibody (sc-32233, SantaCruz, diluted 20000 times) were used. The membrane was shaken at room temperature for 60 minutes, and then the membrane was washed with TBS-T for 5 minutes. […] Subsequently, the membrane was treated with a chemiluminescence reagent Immobilon™ Western (Millipore), and then chemiluminescence was detected using a lumino image analyzer LAS-3000 (FUJIFILM Corporation). Detected bands were quantified with an image processing software ImageJ (NIH).

MDM2 protein = target: T2, MDM2 protein (Mus musculus, UniProt P23804); test: Degradation of MDM2 protein in each tissue of mouse after administration, Western blot analysis; format: in vivo; conditions: 48 hours after administration
T2 construct: administered intraperitoneally to C57BL/6J wild-type mice; from tissue; host or cells: C57BL/6J wild-type mice: liver, kidneys, spleen, heart
T2 sequence (P23804 whole entry): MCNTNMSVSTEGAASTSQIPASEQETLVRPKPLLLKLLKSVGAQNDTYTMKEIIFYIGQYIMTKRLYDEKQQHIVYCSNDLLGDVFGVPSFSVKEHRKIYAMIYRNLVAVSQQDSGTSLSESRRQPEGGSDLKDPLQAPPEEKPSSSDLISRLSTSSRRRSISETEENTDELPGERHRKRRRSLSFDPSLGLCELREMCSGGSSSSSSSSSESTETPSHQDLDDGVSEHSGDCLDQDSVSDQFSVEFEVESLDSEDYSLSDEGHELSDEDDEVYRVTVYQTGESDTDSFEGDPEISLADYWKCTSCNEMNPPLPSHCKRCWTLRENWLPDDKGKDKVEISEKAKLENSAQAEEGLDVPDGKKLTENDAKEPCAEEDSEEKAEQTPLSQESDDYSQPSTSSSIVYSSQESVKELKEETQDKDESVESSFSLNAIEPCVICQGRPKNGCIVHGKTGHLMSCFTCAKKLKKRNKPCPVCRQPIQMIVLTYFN
Experimental: as §1, §2
as §3, with “Electrophoresis was performed at 160 V for 60 minutes (electrophoresis buffer; 195 mM glycine, 25 mM Tris).” left out
After electrophoresis, proteins were transferred to a PVDF membrane (Immobion™-P, Millipore) under conditions of 100 V and 1.5 hours using a tank-type blotting device and a transfer buffer (25 mM Tris-HCl, 195 mM glycine, 0.01% SDS, 15% methanol). […] Subsequently, the membrane was treated with a chemiluminescence reagent Immobilon™ Western (Millipore), and then chemiluminescence was detected using a lumino image analyzer LAS-3000 (FUJIFILM Corporation). Detected bands were quantified with an image processing software ImageJ (NIH).

amount of wild-type p53 protein in kidneys (wild-type p53 protein; intraperitoneal 50 or 100 mg/kg body weight, 48 hours after administration, kidneys): reduction of the target was not found
amount of wild-type p53 protein in liver (wild-type p53 protein; intraperitoneal, only at a dose of 100 mg/kg body weight, 48 hours after administration, liver): reduced slightly
amount of MDM2 protein in kidneys (MDM2 protein; intraperitoneal 50 or 100 mg/kg body weight, kidneys): reduction of the target was not found
amount of MDM2 protein in liver (MDM2 protein; intraperitoneal, only at a dose of 100 mg/kg body weight, liver): reduced slightly
Compound: CC(C)C[C@H](NC(=O)CNC(=O)c1cc(Cl)ccc1Cl)C(=O)NCCCCCCC(=O)Nc1ccc(C(=O)/C=C/c2ccc(I)cc2)cc1 [TIBC-CANDDY_MLN]
amount of wild-type p53 protein in heart (wild-type p53 protein; intraperitoneal 50 or 100 mg/kg body weight, 48 hours after administration, heart): reduced in a concentration dependent manner
amount of wild-type p53 protein in spleen (wild-type p53 protein; intraperitoneal 50 or 100 mg/kg body weight, 48 hours after administration, spleen): reduced in a concentration dependent manner
transfer property to tissues (molecular kinetics) (wild-type p53 protein; suggested from p53 and MDM2 degradation in tissues): showed a higher transfer property to the heart, liver, and spleen as compared with the kidneys
amount of MDM2 protein in heart (MDM2 protein; intraperitoneal 50 or 100 mg/kg body weight, heart): reduced in a concentration dependent manner
amount of MDM2 protein in spleen (MDM2 protein; intraperitoneal 50 or 100 mg/kg body weight, spleen): reduced in a concentration dependent manner
